In the Deep4Chem optical property database:

Assay: solvent given as SMILES

## Cc1cc(-c2cccc3ccccc23)cc(C)[o+]1
In ClCCl
  emission maximum: 554 nm

## CN(C)c1ccc(C2=Nc3scc(-c4ccc([N+](=O)[O-])cc4)[n+]3[B-](F)(F)O2)cc1
In C1CCOC1
  emission maximum: 454 nm
In CC#N
  emission maximum: 453 nm
In Cc1ccccc1
  emission maximum: 447 nm
In ClCCl
  emission maximum: 454 nm

## Cc1ccc2oc(-c3cc4cc(C)ccc4oc3=O)cc2c1
In CC#N
  emission maximum: 445 nm
In CCOC(C)=O
  emission maximum: 436 nm
In CS(C)=O
  emission maximum: 448 nm
In Cc1ccccc1
  emission maximum: 436 nm
In O
  emission maximum: 498 nm

## Cc1ccc(-c2c3nc(c(-c4ccc(C)cc4)c4ccc([nH]4)c(-c4ccc(OC(=O)C(C)c5ccccc5)cc4)c4nc(c(-c5ccc(C)cc5)c5ccc2[nH]5)C=C4)C=C3)cc1 (stereo not given)
In ClCCl
  emission maximum: 653 nm

## CC(C)=CC(=O)c1cc2c(cc1F)NC(C)(C)CC2=O
In CC#N
  emission maximum: 422 nm
In CCO
  emission maximum: 459 nm

## O=c1oc2ccccc2cc1/C=C/c1ccc([N+](=O)[O-])cc1
In CC#N
  emission maximum: 539 nm

## CCN(CC)c1ccc(/C=N/CC/N=C/c2ccc(N(CC)CC)cc2O)c(O)c1
In CC#N
  emission maximum: 415 nm
In CN(C)C=O
  emission maximum: 433 nm
In ClCCl
  emission maximum: 432 nm

## CCn1c2ccccc2c2cc(-c3cc(-c4ccc5c(c4)c4ccccc4n5CC)nc(-c4ccc(OC)cc4)n3)ccc21
In C1CCOC1
  emission maximum: 385 nm
In CCOC(C)=O
  emission maximum: 384 nm
In CN(C)C=O
  emission maximum: 414 nm
In Cc1ccccc1
  emission maximum: 379 nm
In ClCCl
  emission maximum: 404 nm

## CCCC1=Cc2nc1ccc1[nH]c(cc1CCC)c1nc(c(N)cc3[nH]c2cc3CCC)C(CCC)=C1
In Cc1ccccc1
  emission maximum: 729 nm

## Cc1cc(C)c2c(c1)c1cc(C)cc(C)c1n2-c1ccc2c(c1)Sc1cc3c(cc1B2c1c(C(C)C)cc(C(C)C)cc1C(C)C)B(c1c(C(C)C)cc(C(C)C)cc1C(C)C)c1ccccc1S3
In Cc1ccccc1
  emission maximum: 465 nm
In O=P(c1ccccc1)(c1ccccc1)c1ccc2oc3ccc(P(=O)(c4ccccc4)c4ccccc4)cc3c2c1
  emission maximum: 483 nm

## COc1ccc2c3ccc(OC)cc3n(-c3ccc(-c4nnc(-c5c(C(C)C)cc(C(C)C)cc5C(C)C)o4)cc3)c2c1
In Cc1ccccc1
  emission maximum: 437 nm

## c1ccc(-c2nc3ccccc3nc2-c2ccccc2)cc1
In C1CCOC1
  emission maximum: 401 nm
In CC#N
  emission maximum: 399 nm
In CCCCCC
  emission maximum: 396 nm
In CN(C)C=O
  emission maximum: 403 nm
In Cc1ccccc1
  emission maximum: 400 nm
In ClC(Cl)Cl
  emission maximum: 398 nm

## c1ccc(CSc2c3ccc(=[N+]4CCCCC4)cc-3oc3cc(N4CCCCC4)ccc23)cc1
In ClCCl
  emission maximum: 619 nm

## CC1=C2C=CC(c3ccccc3)=[N+]2[B-](F)(F)n2c1ccc2-c1ccccc1
In ClCCl
  emission maximum: 577 nm

## CCCCCn1c2cc(/C=C/c3ccc(N(c4ccccc4)c4ccccc4)cc3)ccc2c2ccc(/C=C/c3ccc(N(c4ccccc4)c4ccccc4)cc3)cc21
In Cc1ccccc1
  emission maximum: 451 nm

## Cn1c(=O)c(/N=N/c2cc(S(=O)(=O)O)ccc2S(=O)(=O)O)c(O)c2ccccc21
In C1CCOC1
  emission maximum: 498 nm
In CC(C)=O
  emission maximum: 491 nm
In CCOC(C)=O
  emission maximum: 493 nm
In CO
  emission maximum: 483 nm
In CS(C)=O
  emission maximum: 490 nm
In Cc1ccccc1
  emission maximum: 490 nm
In ClCCl
  emission maximum: 493 nm
In O
  emission maximum: 500 nm

## COc1cc2c(cc1-c1ccsc1)Cc1c3c(c4c(c1-2)-c1cc(OC)c(-c2ccsc2)cc1C4)C(=O)N(CCC(C)C)C3=O
In C1CCOC1
  emission maximum: 487 nm

## O=C1OC(=O)[C@H]2[C@@H]1[C@@H]1C[C@H]2c2c1c(-c1ccccc1)c1ccccc1c2-c1ccccc1
In ClC(Cl)Cl
  emission maximum: 362 nm

## Cc1oc2c(Cl)cc3c(C)cc(=O)oc3c2c1C
In C1CCCCC1
  emission maximum: 403 nm
In C1COCCO1
  emission maximum: 416 nm
In CC#N
  emission maximum: 431 nm
In CCO
  emission maximum: 440 nm
In OCC(F)(F)F
  emission maximum: 469 nm

## CN(C)c1ccc2c(-c3cc(C(=O)[O-])ccc3C(=O)[O-])c3ccc(=[N+](C)C)cc-3oc2c1
In CCO
  emission maximum: 564 nm
In O
  emission maximum: 575 nm

## CC1=[N+]2C(=C(c3ccccc3)c3c4c(c(C)n3[B-]2(F)F)C2CCC4CC2)C2=C1C1CCC2CC1
In CC#N
  emission maximum: 543 nm

## CC(C)(C)c1ccc2c(c1)-c1c3c(c4c5c1-c1cc(C(C)(C)C)ccc1OB5Oc1ccc(C(C)(C)C)cc1-4)-c1cc(C(C)(C)C)ccc1OB3O2
In ClCCl
  emission maximum: 436 nm

## Cc1cc(C)c(B(c2c(C)cc(C)cc2C)N2c3ccccc3C(C)(C)c3ccccc32)c(C)c1
In C1CCCCC1
  emission maximum: 533 nm
In Cc1ccccc1
  emission maximum: 558 nm
In ClCCl
  emission maximum: 580 nm

## O=S1(=O)C(c2ccsc2)=C(c2ccsc2)c2ccccc21
In C1CCOC1
  emission maximum: 433 nm

## O=C1c2cccc3c(-n4c5ccccc5c5ccccc54)ccc(c23)C(=O)N1C1CCCCC1
In C1CCOC1
  emission maximum: 546 nm
In CCCCCC
  emission maximum: 441 nm
In ClC(Cl)Cl
  emission maximum: 495 nm
In ClCCl
  emission maximum: 563 nm

## c1ccc(-c2ccc3c4ccc(-c5ccccc5)c5c(-c6ccccc6)ccc(c6ccc(-c7ccccc7)c2c36)c54)cc1
In ClCCl
  emission maximum: 520 nm

## N#Cc1ccc(/C2=C3N=C(C(c4ccccc4)=C/3c3ccccc3)/C(c3ccc(C#N)cc3)=c3\[nH]/c(c(-c4ccccc4)c3-c3ccccc3)=C(/c3ccc(C#N)cc3)C3=N/C(=C(/c4ccc(C#N)cc4)c4[nH]c2c(-c2ccccc2)c4-c2ccccc2)C(c2ccccc2)=C3c2ccccc2)cc1
In ClCCl
  emission maximum: 725 nm

## O=P1(c2ccccc2)C(c2ccc(N(c3ccccc3)c3ccccc3)cc2)=Cc2ccccc21 (stereo not given)
In C1CCOC1
  emission maximum: 521 nm
In CC#N
  emission maximum: 577 nm
In CN(C)C=O
  emission maximum: 566 nm
In Cc1ccccc1
  emission maximum: 490 nm
In ClC(Cl)Cl
  emission maximum: 529 nm
In ClCCl
  emission maximum: 544 nm
